Series [1] has as its system α2 adrenoceptors. Also on record: method as in Jakobsen and colleagues[14]. The following applies: porcine brain; low dose 0.15 mg/kg vs 0.7 mg/kg; ref Jakobsen and colleagues[14]; cited from earlier work.
Series [2] relates to [^11C]mirtazepin binding in porcine brain. Also on record: method as in Smith et al.[34]. The following applies: ref Smith et al.[34], cited from earlier work.
On the set-up of series [3]: method as in Jakobsen et al.[14]. The note with it: pigs; challenge, compared with yohimbine; ref Jakobsen et al.[14]; cited from earlier work.
A further series has as its system α2 adrenoceptor subtypes. Also on record: method as in PMID 7908054. The following applies: cited from earlier work.
Series [4] deals with α2 adrenoceptor. The following applies: parieto-occipital cortex, pH 7.5, 25.0 °C, mg^2+ 1 mM, blocking of NS adrenaline 10 μM, cited from earlier work.
The target of series [5] is α2 adrenoceptor. Also on record: method as in Rout et al.[32]. The following applies: cortex, pH 7.0, 25.0 °C, blocking of NS noradrenaline 100 μM, ref Rout et al.[32], cited from earlier work.
Series [6] addresses α2 adrenoceptor. The note with it: cerebral cortex, pH 7.4, 25.0 °C, mg^2+ 0, blocking of NS phentolamine 10 μM, cited from earlier work.
Series [7] concerns α2 adrenoceptors. The experiment in a line: Eadie-Hofstee Plot of PET binding potentials (receptor density Bmax and KD in vivo). The arrangement: species or system rat. An excerpt:
The values of BPND enabled us to determine the α2 adrenoceptor density in vivo. As presented in Fig. 4A, we estimated values of receptor density, Bmax, and receptor affinity (1/KD) by means of Eadie-Hofstee plots. We calculated the bound quantity according to eq. 2, based on the information of the BPND and specific activity. We found the greatest receptor densities in thalamus, caudate putamen, and cortical areas, with the lowest densities in cerebellum and olfactory bulb as presented in Fig. 4B. The regional receptor densities are listed in detail in Table 2 and specific activity in Table 3.
We derived the present method from well-known principles of kinetics. We identified the following six steps to the determination of binding parameters of radioligands that achieve receptor occupancy. […] The variable B is the bound quantity of the ligand, and BPND is the binding potential of the radioligand at the specific degree of occupancy. To solve the equation of the Eadie-Hofstee plot for the two parameters, it is necessary to know the bound quantities of the ligand and the binding potentials in at least two conditions of different occupancy. The bound quantity is related to the binding potential by the relationship,2 B=M(BPND/1+BPND), where M is the total mass of the ligand per unit volume of brain tissue, calculated from the known specific activity of the radioligand.
The sixth and final step was the graphical solution to the Eadie-Hofstee Plot of eq. (1) (Eadie 1952, Hofstee 1952), where B is the bound quantity and BPND is the binding potential of ligands. We calculated the bound quantity from the relationship described by eq. 2.

Series [8] relates to α2 adrenoceptors. The following applies: cited from earlier work.
For another series, the system named is plasma proteins. The following applies: in the circulation; cited from earlier work.
The test system of series [9] is α2 adrenoceptors. The experiment in a line: PET of [^11C]yohimbine binding in rat brain at baseline and at challenge with unlabeled yohimbine. The note with it: for Volumes of Distribution, VT, BASE: baseline; for Volumes of Distribution, VT, BASE / Volumes of Distribution, VT, COLD: individual rats 1-5; for Volumes of Distribution, VT, COLD: challenge with unlabeled yohimbine 0.3 mg/kg i.v.

Each structure is given as a SMILES string. Values joined by “and” are separate entries in the source; they are usually repeats but may differ in a detail not shown here. Identical values can stand only once. Like-named read-outs stand apart in the source and are kept apart here.

Turning to `COC1(C2=NCCN2)COc2ccccc2O1` (stereo not shown) [RX821002], the “decline of VT of [^11C]yohimbine” value in the series on α2 adrenoceptors [1] was “greater decline of the value of VT than the higher dose of 0.7 mg/kg”. In addition, the “reduction of [^11C]mirtazepin binding” value in series [2] (0.1 mg/kg) is reported as 35%; in [2] (1 mg/kg), “failed to inhibit the binding further”. The “effect on CBF” value in series [3] is “opposite effect”. The “affinity to α2 adrenoceptor subtypes” value with α2 adrenoceptor subtypes was “higher affinity to α2A and α2C than to α2B”.
For orientation: Kd means a measure of binding affinity in units of concentration. In the case of `COC1(C2=NCCN2)COc2ccccc2O1` (stereo not shown) [[^3H]RX821002], the Kd is 0.57 nM on α2 adrenoceptor [4] (ref Ribas et al.[7]) and 0.5 nM on α2 adrenoceptor [4] (ref Ribas et al.[68]).
On to `COC(=O)[C@@H]1[C@H]2C[C@H]3c4[nH]c5ccccc5c4CCN3C[C@@H]2CC[C@@H]1O` [[^3H]yohimbine], for which the Kd on α2 adrenoceptor [5] (mg^2+ 0 mM) was […]; at α2 adrenoceptor [5] (mg^2+ 10 mM) it was […]; at α2 adrenoceptor [6] (ref Brown et al.[44]) it was 5.2 nM; at α2 adrenoceptor [6] (ref Brown et al.[45]) it was 5.3 nM.
Take `COC(=O)[C@@H]1[C@H]2C[C@H]3c4[nH]c5ccccc5c4CCN3C[C@@H]2CC[C@@H]1O` [[^11C]yohimbine]: the equilibrium dissociation constant (Kd) was […] in the series with α2 adrenoceptors [7] (CEREB cerebellum, in vivo PET, read-out: KD mean ± S.E.M.); […] with α2 adrenoceptors [7] (CP caudate putamen, in vivo PET, read-out: KD mean ± S.E.M.); […] with α2 adrenoceptors [7] (HIPP hippocampus, in vivo PET, read-out: KD mean ± S.E.M.); […] with α2 adrenoceptors [7] (HYPP hypothalamus, in vivo PET, read-out: KD mean ± S.E.M.); […] in the series with α2 adrenoceptors [7] (MC motor cortex, in vivo PET, read-out: KD mean ± S.E.M.); […] in the series with α2 adrenoceptors [7] (OLF olfactory bulb, in vivo PET, read-out: KD mean ± S.E.M.). Besides, the Kd in the series on α2 adrenoceptors [7] (PFC prefrontal cortex, in vivo PET, read-out: KD mean ± S.E.M.) was […]; in the series on α2 adrenoceptors [7] (SSC somatosensory cortex, in vivo PET, read-out: KD mean ± S.E.M.), […]; in the series with α2 adrenoceptors [7] (THAL thalamus, in vivo PET, read-out: KD mean ± S.E.M.), […]; in the series with α2 adrenoceptors [7] (all examined regions, Fig. 4B right, read-out: KD), […]; with α2 adrenoceptors [7] (prefrontal cortex, in vivo, physiological condition, blocking of NS mathematical, 0.3 mg/kg YOH, read-out: KD), […].
Take `[11CH3]OC(=O)[C@@H]1[C@H]2C[C@H]3c4[nH]c5ccccc5c4CCN3C[C@@H]2CC[C@@H]1O` [[^11C]yohimbine]: in the series on α2 adrenoceptors [8] (data from two rats), the “radioactive metabolites in plasma” value is on record as “no radioactive metabolites”. The “fraction bound to plasma proteins” value in the series on plasma proteins is recorded as 82%. Besides, the “Volumes of Distribution, VT, BASE” value is […] in the series on α2 adrenoceptors [9] (CEREB cerebellum); […] in the series on α2 adrenoceptors [9] (CP caudate putamen); […] in the series with α2 adrenoceptors [9] (HIPP hippocampus); […] in the series with α2 adrenoceptors [9] (HYP hypothalamus); […] in the series with α2 adrenoceptors [9] (MC motor cortex); […] with α2 adrenoceptors [9] (OLF olfactory bulb). For the same compound, the “Volumes of Distribution, VT, BASE” value in the series on α2 adrenoceptors [9] (PFC prefrontal cortex) was […]; in the series on α2 adrenoceptors [9] (SSC somatosensory cortex) it was […]; in the series on α2 adrenoceptors [9] (THAL thalamus), […]. The “Volumes of Distribution, VT, COLD” value with α2 adrenoceptors [9] (CEREB cerebellum) is […]; with α2 adrenoceptors [9] (CP caudate putamen), […]; with α2 adrenoceptors [9] (HIPP hippocampus) it was […]; with α2 adrenoceptors [9] (HYP hypothalamus), […]; in the series with α2 adrenoceptors [9] (MC motor cortex), […]; in the series on α2 adrenoceptors [9] (OLF olfactory bulb) it was […]. Further, the “Volumes of Distribution, VT, COLD” value in the series on α2 adrenoceptors [9] (PFC prefrontal cortex) is […]; with α2 adrenoceptors [9] (SSC somatosensory cortex) it was […]; in the series with α2 adrenoceptors [9] (THAL thalamus) it was […]. For the same compound, the “time of peak uptake post-injection” value with α2 adrenoceptors [9] (cerebellum) is on record as […]. Further, the rate of escape in the series with α2 adrenoceptors [9] (corresponding to K1 for a vascular volume of 0.02 ml/cm^3) is […]. The “time of peak accumulation post-injection” value in the series on α2 adrenoceptors [9] (other brain regions) is on record as […].
For `CC(N)Cc1ccccc1` (stereo not shown) [amphetamine], the “change of VND(b) and fP of [^11C]yohimbine” value with α2 adrenoceptors [8] (amphetamine 2 mg/kg challenge) is reported as “did not change”.
